Assay [1] deals with T1, 14-3-3γ (Homo sapiens, UniProt P61981).
T1 construct: 14-3-3γ (UniProt P61981-1; residues 1–247); 8-His tag with TEV protease cleavage site (N); made in house; host or cells: E. coli C41 (DE3)
T1 sequence (P61981 1-247): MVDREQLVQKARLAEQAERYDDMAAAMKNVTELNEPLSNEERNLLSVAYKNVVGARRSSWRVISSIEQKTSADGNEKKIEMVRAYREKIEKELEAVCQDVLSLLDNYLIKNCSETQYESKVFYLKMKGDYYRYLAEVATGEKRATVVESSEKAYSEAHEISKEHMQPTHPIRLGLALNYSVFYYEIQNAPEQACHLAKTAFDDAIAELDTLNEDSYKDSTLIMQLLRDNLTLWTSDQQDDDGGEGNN
Put plainly: SPR, PEAK peptides binding to immobilised 14-3-3γ. The conditions noted are these: peptide analyte over amine-coupled 14-3-3γ (CM5), Biacore S200, HBS-TP pH 7.4, 20 °C, steady-state 1:1 fit, mean ± S.E.M. The protocol: (§1) Purified […]3 was diluted to 5 μg ml^-1 in 10 mM sodium acetate pH 4.0 and amine coupled at 25 °C to a Series S CM5 sensor chip, in HBS-N running buffer (20 mM HEPES pH 7.4, 150 mM NaCl) to a final immobilization level of 1100-1400 response units (RU), followed by surface deactivation using 1 M ethanolamine. A blank activation/deactivation was used for the reference surface. […] Samples were injected in a multi-cycle run (flow rate 30 μl min^-1, contact time of 60 s, dissociation 120 s) without regeneration. Sensorgrams were double referenced, and steady-state binding data fitted using a 1:1 binding model using Biacore S200 Evaluation Software (Cytiva, v. 1.1). […] Representative sensorgrams and fitted dissociation constant (KD) values, depicted as mean ± S.E.M.
For orientation: Surface plasmon resonance follows binding to a sensor surface in real time, without labels.

The target of another assay is T2, 14-3-3ε (Homo sapiens, UniProt P62258).
T2 construct: 14-3-3ε (UniProt P62258-1; residues 1–255); 8-His tag with TEV protease cleavage site (N); made in house; host or cells: E. coli C41 (DE3)
T2 sequence (P62258 1-255): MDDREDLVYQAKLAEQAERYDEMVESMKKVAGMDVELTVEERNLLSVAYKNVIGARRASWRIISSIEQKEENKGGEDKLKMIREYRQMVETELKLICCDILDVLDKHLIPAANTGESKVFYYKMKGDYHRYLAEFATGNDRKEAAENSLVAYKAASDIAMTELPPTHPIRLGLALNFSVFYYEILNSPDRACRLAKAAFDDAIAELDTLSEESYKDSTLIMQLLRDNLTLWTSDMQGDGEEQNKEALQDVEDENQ
Description: SPR, PEAK tandem peptides binding to immobilised 14-3-3ε. The conditions noted are these: peptide analyte over amine-coupled 14-3-3ε (CM5); Biacore S200, HBS-TP pH 7.4, 20 °C; steady-state 1:1 fit; mean ± S.E.M.; read-out: SPR KD, 14-3-3ε (epsilon). The protocol:
Purified […]3 was diluted to 5 μg ml^-1 in 10 mM sodium acetate pH 4.0 and amine coupled at 25 °C to a Series S CM5 sensor chip, in HBS-N running buffer (20 mM HEPES pH 7.4, 150 mM NaCl) to a final immobilization level of 1100-1400 response units (RU), followed by surface deactivation using 1 M ethanolamine. A blank activation/deactivation was used for the reference surface. […] PEAK PRM peptides: […] Samples were injected in a multi-cycle run (flow rate 30 μl min^-1, contact time of 60 s, dissociation 120 s) without regeneration. Sensorgrams were double referenced, and steady-state binding data fitted using a 1:1 binding model using Biacore S200 Evaluation Software (Cytiva, v. 1.1). […] Representative sensorgrams and fitted dissociation constant (KD) values, depicted as mean ± S.E.M.

The next assay concerns the target T3, 14-3-3η (Homo sapiens, UniProt Q04917).
T3 construct: 14-3-3η (UniProt Q04917-1; residues 1–246); 8-His tag with TEV protease cleavage site (N); made in house; host or cells: E. coli C41 (DE3)
T3 sequence (Q04917 1-246): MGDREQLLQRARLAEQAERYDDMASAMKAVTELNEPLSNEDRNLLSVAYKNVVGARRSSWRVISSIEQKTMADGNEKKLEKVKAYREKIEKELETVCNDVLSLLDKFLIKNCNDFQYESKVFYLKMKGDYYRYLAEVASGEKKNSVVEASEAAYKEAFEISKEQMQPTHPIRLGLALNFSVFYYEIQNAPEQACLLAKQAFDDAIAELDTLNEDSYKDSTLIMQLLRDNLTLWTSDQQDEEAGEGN
Put plainly: SPR, PEAK tandem peptides binding to immobilised 14-3-3η. The conditions noted are these: peptide analyte over amine-coupled 14-3-3η (CM5); Biacore S200, HBS-TP pH 7.4, 20 °C; steady-state 1:1 fit; mean ± S.E.M.; read-out: SPR KD, 14-3-3η (eta). How it is done: as §1

Assay [2] concerns the target T1, 14-3-3γ. Description: ITC, 14-3-3γ titrated into PEAK3 tandem peptides. Format: binding. The conditions noted are these: binary, 14-3-3γ (syringe) into peptide (20 µM, cell), 25 °C, 20 mM HEPES pH 7.4, 150 mM NaCl, 1 mM TCEP, single-site fit, mean ± S.E.M. of N = 4 (N = 1 for non-phosphorylated peptide). How it is done:
(§2) ITC binding experiments were conducted using a MicroCal iTC200 instrument (Malvern Instruments). Titrations were conducted at 25 °C in reverse mode (peptide in cell, protein in syringe) and consisted of 19 injections of 2 μl […] at a rate of 2 s μl^−1 at 90 s time intervals, whilst stirring at 1000 rpm. An initial injection of 0.4 μl protein was made and discarded during data analysis. Proteins (14-3-3ɣ or CrkII^NSH3) were first dialyzed overnight at 4 °C into ITC buffer (20 mM HEPES pH 7.4, 150 mM NaCl, 1 mM TCEP), filtered and degassed under vacuum. […] Following the first titration, excess solution was removed from the cell, and the syringe was washed and dried. […] All data were fitted to a single binding site model to obtain the stoichiometry (N), dissociation constant (KD) and the enthalpy of binding (ΔH), using MicroCal PEAQ-ITC Analysis software (v.1.41).
(In general: In ITC the heat of successive injections is recorded.)

For another assay, the target named is T4, CrkII^NSH3 (Homo sapiens, UniProt P46108).
T4 construct: CrkII^NSH3; UniProt P46108-1, residues 134–191; 8-His tag with TEV protease cleavage site (N); made in house; host or cells: E. coli C41 (DE3)
T4 sequence (P46108 134-191): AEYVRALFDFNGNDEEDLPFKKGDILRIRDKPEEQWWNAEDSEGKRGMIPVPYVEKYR
Description: ITC, CrkII NSH3 titrated into PEAK3 tandem peptides (binary) or peptide:14-3-3γ complexes (ternary). It counts as binding. The conditions noted are these: CrkII NSH3 (400 µM, syringe) into peptide pre-saturated with 14-3-3γ (16.8 µM, cell), 25 °C, HEPES pH 7.4, mean ± S.E.M. of N = 4 (pS69) or N = 1 (non-phosphorylated), read-out: ITC KD, CrkII N-SH3, ternary. How it is done:
as §2

Some results are limits rather than exact numbers.

A word on the Kd: it is the free concentration of one partner at which half of the binding sites on the other are occupied at equilibrium, for simple one-to-one binding.

Take `CC[C@H](C)[C@H](NC(=O)[C@H](CCCCN)NC(=O)[C@H](CCCCN)NC(=O)[C@@H]1CCCN1C(=O)[C@H](CC(C)C)NC(=O)[C@@H]1CCCN1C(=O)[C@@H]1CCCN1C(=O)[C@@H]1CCCN1C(=O)[C@H](CC(C)C)NC(=O)[C@@H]1CCCN1C(C)=O)C(=O)N[C@@H](CC(C)C)C(=O)N[C@H](C(=O)N[C@@H](CCCNC(=N)N)C(=O)N[C@H](C(=O)N[C@@H](CCC(N)=O)C(=O)N[C@@H](CO)C(=O)N[C@@H](CC(C)C)C(=O)N1CCC[C@H]1C(=O)N[C@H](C(=O)N[C@@H](CCCNC(=N)N)C(=O)N[C@@H](CCCNC(=N)N)C(N)=O)[C@@H](C)O)[C@@H](C)O)[C@@H](C)O` (single isomer, unassigned) [PEAK3^tandem]: the figures for the “SPR KD, 14-3-3γ (gamma)” value at 14-3-3γ [1] and on 14-3-3γ [1] (54–74) were “no appreciable binding” and “No binding”, respectively. The Kd at 14-3-3γ [1] (read-out: SPR KD, 14-3-3γ (gamma)) was more than 100 µM; at 14-3-3ε it was more than 100 µM; on 14-3-3η, more than 100 µM; on CrkII^NSH3, 0.7 µM. Further, the “ITC KD, 14-3-3γ” value on 14-3-3γ [2] is “no appreciable binding”; on 14-3-3γ [2] (54–74), “No binding”; at 14-3-3γ [2] (listed as PEAK3 tandem), “no binding”.

The values above are taken from PMC10279719 (Nature Communications, 2023).
